Data reported in BigSolDB 2.1.

OC[C@H]1O[C@H](O[C@H]2O[C@H](CO)[C@@H](O)[C@H](O)[C@H]2O)[C@H](O)[C@@H](O)[C@@H]1O
solubility (mole fraction)
Details	288.15 K	293.15 K	298.15 K	303.15 K	308.15 K	313.15 K	318.15 K
in ethanol	0.000652	0.000701	0.000778	0.000852	0.000905	0.000989	0.00108
in water	0.0344	0.0381	0.0437	0.0545	0.0636	0.0683	0.114
